According to patent publication US4563478A, “Method of tranquilizing” (priority 1981, dated 1986):

How the values were obtained:
[1] = tested on: Plasmatic Prolactin Levels (PRL); assay: Effect of compound (V) administered intravenously to the rat on plasmatic prolactin levels (PRL); format: in vivo
Text: 4. Effect of Compound (V) Administered Intravenously to the Rat, on the Plasmatic Prolactin Levels (PRL)

[2] = Sub-acute toxicity, 4 weeks; format: in vivo; settings: daily oral and intra-peritoneal 10, 20 and 40 mg/kg/day
Procedure: After daily oral and intra-peritoneal administration of 10,20 and 40 mg/kg/day of compound (V) for 4 weeks, no effect is observed on mortality, body weight, alimentation, hematological or urinary data, autoptic examination, weight or histology of the organs.

[3] = tested on: Schizosacch. pombe P1; assay: Generic mutation; settings: 1000-100-10 mcg/plate
[4] = tested on: Spinal Medulla of the Cat; assay: Effect on the spinal medulla of the cat; format: in vivo; settings: 3-30 mg/kg i.v.
[5] = tested on: cGMP in the rat cerebellum; assay: Effect on the cGMP levels in the rat cerebellum; format: in vivo; settings: i.v., 1 hour after administration, saline = 100
Procedure: The cGMP is measured 1 hour after administration.

[6] = Acute toxicity, mouse; settings: in vivo, observation 14 days, read-out: DL50
Text: (§1) |Observation period: 14 days

[7] = tested on: animals (Rat, Mouse); assay: Acute toxicity, symptoms observed in the animals (rat, mouse); format: in vivo
Procedure: Observation period: 14 days
(+) from 500 mg/kg upwards, the animals show sedation symptoms.

[8] = Acute toxicity, rat; settings: in vivo, observation 14 days, read-out: DL50
Text: as §1

[9] = tested on: Sacch. cerevisiae D4; assay: Genetic conversion; settings: 1000-100-10 mcg/plate
[10] = tested on: salmonella thyphimurium, 5 different strains; assay: Mutagenesis (Salmonella, 5 different strains); settings: 1000-100-10 mcg/plate
Text: Mutagenesis (salmonella thyphimurium, 5 different strains): 1000-100-10 mcg/plate: negative.

[11] = tested on: EEG in Rabbits; format: in vivo
Procedure: At doses of 100 and 50 mg/kg i.v., electrical activity becomes evidently synchronous 10 minutes after administration, and lasts for about 3 hours. […] After 4 hours, behaviour and EEG become normal.

[12] = orally or parenterally; cited from earlier work
[13] = line marked (+), route not given

O=C(O)CCCNCCC(=O)O [Compound (V), N-β-carboxyethyl-γ-aminobutyric acid]
PRL levels ([1]; 100 mg/kg i.v., 0 min): 4 ng/mL | PRL levels ([1]; 100 mg/kg i.v., 15 min): 18 ± 5 ng/mL | PRL levels ([1]; 100 mg/kg i.v., 30 min): 4 ± 6 ng/mL | PRL levels ([1]; 100 mg/kg i.v., 60 min): 4 ng/mL | PRL levels ([1]; 200 mg/kg i.v., 0 min): 4 ng/mL | PRL levels ([1]; 200 mg/kg i.v., 15 min): 49 ± 10 ng/mL | PRL levels ([1]; 200 mg/kg i.v., 30 min): 5 ± 1 ng/mL | PRL levels ([1]; 200 mg/kg i.v., 60 min): 4 ng/mL | PRL levels ([1]; 300 mg/kg i.v., 0 min): 4 ng/mL | PRL levels ([1]; 300 mg/kg i.v., 15 min): 78 ± 5 ng/mL | PRL levels ([1]; 300 mg/kg i.v., 30 min): 21 ± 8 ng/mL | PRL levels ([1]; 300 mg/kg i.v., 60 min): 12 ng/mL | effect on the prolactin release ([1]; intravenous, short intervals after administration): dose-dependent effect on the prolactin release | effect on alimentation [2]: no effect | effect on autoptic examination [2]: no effect | effect on body weight [2]: no effect | effect on hematological or urinary data [2]: no effect | effect on mortality [2]: no effect | effect on weight or histology of the organs [2]: no effect | Generic mutation [3]: negative | activity on the gamma-mononeuron [4]: dose-dependent reduction | dorsal root potentials [4]: dose-dependent reduction | mono and polysynaptic reflexes of the ventral root [4]: dose-dependent reduction | cGMP: Relative levels ([5]; 1 mg/kg): 95 ± 8 | cGMP: Relative levels ([5]; 10 mg/kg): 68 ± 4 | cGMP: Relative levels ([5]; 30 mg/kg): 60 ± 5 | cGMP: Relative levels ([5]; 100 mg/kg): 74 ± 6 | LD50 at 336 h ([6]; ip, intra-peritoneal): 783 mg/kg | LD50 at 336 h [6, 13]: 1000 mg/kg | LD50 at 336 h ([6]; oral): 1000 mg/kg | dose from which the animals show sedation symptoms ([7]; in vivo, po, 20160 min): ≥ 500 mg/kg | symptoms before death ([7]; intra-peritoneal (++)): ataxia, lack of reaction to stimuli, and dyspnea | LD50 at 336 h ([8]; ip, intra-peritoneal): 877 mg/kg | LD50 at 336 h [8, 13]: 1000 mg/kg | LD50 at 336 h ([8]; oral): 1000 mg/kg | Genetic conversion [9]: doubtful | mutagenic activity for the gene ADE 2 [9]: not for the gene ADE 2 | mutagenic activity for the gene TPR 5 ([9]; only in the presence of a microsomial activator): a slight increase in mutagenic activity | Mutagenesis [10]: negative | basal activity, cortical graph ([11]; 100 and 50 mg/kg i.v.): replaced by a slow continuous activity prevalent on the cortical graph | behaviour (sedation) ([11]; 100 and 50 mg/kg i.v.): sedated, but responds to stimuli | desynchronisation of cortical activity by vibro-stimulation and pain stimuli ([11]; 100 and 50 mg/kg i.v.): do not desynchronise cortical activity | duration of synchronous electrical activity ([11]; 100 and 50 mg/kg i.v.): about 3 hours | thalamus and hippocampus activity at 4-5 Hz ([11]; 100 and 50 mg/kg i.v.): replaced by an irregular graph and many slow waves | time after administration at which electrical activity becomes synchronous ([11]; 100 and 50 mg/kg i.v.): 10 min | time after which behaviour and EEG become normal ([11]; 100 and 50 mg/kg i.v.): 4 h | sedative activity ([11]; conclusion from EEG in rabbits, i.v.): demonstrates sedative activity | overcoming of the hematoencephalic barrier ([11]; rabbit, in vivo, iv): overcomes the hematoencephalic barrier

NCCCC(=O)O [GABA, gamma-amino butyric acid]
crossing of the blood-brain barrier (GABA) [12]: does not cross the blood-brain barrier
